The results in this text go back to PubChem BioAssay AID1996.

The structures appear in SMILES notation. Values after ≈ are worked out from the molar mass of the structure shown. Some results are limits rather than exact numbers.

The conditions of the data set: buffer; pH 7.4; 200.0 µM.
`O=C(NCC(=O)N1CCCCCC1)c1ccc(Cl)cc1`: the kinetic solubility was over 44.2 µg/mL.

Compound `CN(c1ccccc1)c1nc(N)c([N+](=O)[O-])c(NCc2ccccc2)n1` gave a solubility (kinetic) of under 0.1 µg/mL.

Consider `Oc1ccc(NC(=S)Nc2ccc(F)cc2)cc1`, for which the kinetic solubility is 33.2 µg/mL (≈ 127 µM).

In turn, `COc1ccc(Cl)cc1C(=O)Nc1nc2ccccc2[nH]1` showed a kinetic solubility of 1.2 µg/mL (≈ 3.98 µM).

`O=C(Cc1ccccc1F)Nc1cccc(S(=O)(=O)N2CCOCC2)c1` displayed a solubility (kinetic) of over 56.8 µg/mL.

In turn, `CC1CCCCN1C(=O)CCS(=O)(=O)c1cccc2nonc12` (stereo not given) displayed a solubility (kinetic) of 41.8 µg/mL (≈ 124 µM).

`O=C(CN1CCCCC1)Nc1ccccc1C(=O)NC1CC1` gave a kinetic solubility of over 45.2 µg/mL.

Compound `CCCCN(C(=O)C1CCCC1)C1CCS(=O)(=O)C1` (stereo not given) gave a solubility (kinetic) of over 43.1 µg/mL.

The compound `O=C(COC(=O)/C=C/c1ccc(OC(F)F)cc1)NC(=O)NC1CCCCC1` showed a solubility (kinetic) of 4.5 µg/mL (≈ 11.4 µM).

The compound `COc1ccc(NC(=S)NCc2ccccn2)cc1OC` gave a solubility (kinetic) of over 45.5 µg/mL.

As to `CCc1nc2ccccc2n1CC(=O)Nc1cc(C)on1`, the solubility (kinetic) is over 42.6 µg/mL.

As for `COc1nccc(C(F)(F)F)c1C(=O)NC(=O)Nc1ccccc1`, the kinetic solubility came to 11.5 µg/mL (≈ 33.9 µM).

Regarding `Cc1cc(Oc2ccc(N)cn2)ccc1Cl`, the kinetic solubility amounted to 30.8 µg/mL (≈ 131 µM).

Compound `Cc1ccc(O)c(NC(=O)c2ccccc2-c2ccccc2C(=O)O)c1` registered a kinetic solubility of over 52.1 µg/mL.

Take `Cl.O=C(CN1CCOCC1)c1ccc(Br)cc1`: the solubility (kinetic) was over 48.1 µg/mL.

`O=C(c1ccccc1)C(C(=O)N1CCCCC1)n1ccccc1=O` (stereo not given): the kinetic solubility is over 48.7 µg/mL.

Regarding `COc1cccc(OC)c1C(=O)NC(C)CCc1ccccc1` (stereo not given), the kinetic solubility came out at 44.2 µg/mL (≈ 141 µM).

In the case of `Cc1nnc(SCc2cc(=O)[nH]c(=S)[nH]2)s1`, the kinetic solubility is over 40.9 µg/mL.

Compound `C=CCNC(=O)C12CCC(C)(C(=O)[C@H]1Br)C2(C)C` (stereo not given in full) registered a kinetic solubility of over 47.1 µg/mL.

`Cc1cccc(NC(=O)CCCC(=O)OC(C)C(=O)c2ccccc2)c1` (stereo not given) yielded a kinetic solubility of 46.1 µg/mL (≈ 130 µM).

`O=C(Nc1ccc(Cl)cc1)NC1CCCCNC1=O` (stereo not given) displayed a kinetic solubility of over 42.3 µg/mL.

In turn, `Cc1cccc(NC(=O)C(C)SCc2ccccc2)c1` (stereo not given) showed a kinetic solubility of 27.9 µg/mL (≈ 97.8 µM).

As for `Cc1ccc(C(=O)Nc2cccnc2)cc1Cl`, the solubility (kinetic) was 35.6 µg/mL (≈ 144 µM).

Take `CC(=O)C1C(c2ccc(C)cc2)c2c(noc2C)CC1(C)O` (stereo not given): the solubility (kinetic) came to 42.2 µg/mL (≈ 141 µM).

Compound `CSc1nc2ccccc2c(=O)n1C1CCCCC1` gave a kinetic solubility of 1 µg/mL (≈ 3.64 µM).

Regarding `COCCn1c(-c2ccc(F)cc2)nc2oc3cc(OC)ccc3c(=O)c2c1=O`, the kinetic solubility amounted to 21.1 µg/mL (≈ 53.2 µM).

`S=C(NCc1ccco1)N1CCN(c2ccccn2)CC1` showed a solubility (kinetic) of 42.5 µg/mL (≈ 141 µM).

The compound `Cc1ccc(S(=O)(=O)N2CC=C(C(=O)NCCC(C)C)CC2)cc1` had a solubility (kinetic) of 41.7 µg/mL (≈ 119 µM).

The compound `COc1ccc(C(=O)COC(=O)c2c(C)noc2C)cc1Cl` yielded a kinetic solubility of 2.9 µg/mL (≈ 8.96 µM).

As to `COc1cc(/C=C/C(=O)OCC(=O)Nc2cc(S(=O)(=O)N3CCCC3)ccc2Cl)cc(OC)c1OC`, the solubility (kinetic) was determined as 4.3 µg/mL (≈ 7.98 µM).

The compound `O=C([O-])c1cc(-c2cccnc2)nc2ccccc12.[K+]` came in with a kinetic solubility of 8.7 µg/mL.

As to `Cc1ccc(N=C2NC(=O)/C(=C/c3cccn3C)S2)cc1`, the solubility (kinetic) turned out to be 2 µg/mL (≈ 6.73 µM).

In turn, `O=C(CNC(=O)C1CCCCC1)OCC(=O)c1ccc(Br)cc1` had a kinetic solubility of 27.6 µg/mL (≈ 72.2 µM).

The compound `Cc1cc(C)c2ccc(Cl)cc2n1` displayed a kinetic solubility of 1.5 µg/mL (≈ 7.83 µM).

Regarding `CC(=O)c1cccc(NC(=O)C2COc3ccccc3O2)c1` (stereo not given), the kinetic solubility is 44.1 µg/mL (≈ 148 µM).

The compound `N#Cc1ccccc1NC(=O)c1ccc2c(c1)OCCO2` gave a solubility (kinetic) of 37.4 µg/mL (≈ 133 µM).

In turn, `O=C1CN(C(=O)COc2ccccc2)c2ccccc2N1` displayed a solubility (kinetic) of over 42.3 µg/mL.

The compound `O=C(NCc1ccccc1Cl)NC(=O)c1csc([N+](=O)[O-])c1` gave a solubility (kinetic) of under 0.2 µg/mL.

The compound `CC(C)c1ccc(N2C=Nc3ccc(C(C)C)cc3C2)cc1` gave a kinetic solubility of 2.8 µg/mL (≈ 9.58 µM).

Regarding `CN(Cc1ccccc1)S(=O)(=O)c1ccc(NC(=O)c2ccccc2C(=O)O)cc1`, the kinetic solubility is 61.7 µg/mL (≈ 145 µM).

`CC(=O)Nc1ccc(S(=O)(=O)N(C)c2ccc(OCCOc3cccc(C)c3)cc2)cc1` yielded a solubility (kinetic) of 5 µg/mL (≈ 11 µM).

`Cc1csc(NC(=O)c2sccc2C)n1` yielded a solubility (kinetic) of over 35.7 µg/mL.

`Cc1ccc(CCS(=O)(=O)c2ccc(C(C)(C)C)cc2)cn1` registered a kinetic solubility of over 47.6 µg/mL.

`O=C(Nc1ccc(C(=O)O)cc1)/C(=C\c1ccco1)NC(=O)c1ccco1`: the kinetic solubility was over 54.9 µg/mL.

Consider `CCN(CC)CCn1c(C)nc2ccccc21.Cl`, for which the solubility (kinetic) was 40.6 µg/mL.

`O=C(CNC1CCCCC1)Nc1cccc(C(F)(F)F)c1` had a solubility (kinetic) of over 45 µg/mL.

Regarding `CCc1noc(C)c1C(=O)OCC(=O)c1ccc(OC)c(OC)c1`, the kinetic solubility was 46 µg/mL (≈ 138 µM).

On to `CNC(=O)c1oc(-c2ccccc2)nc1C`, for which the kinetic solubility was over 32.4 µg/mL.

For `COCCNC(=O)/C(C#N)=C/c1cc(Br)c(O)c(OC)c1`, the kinetic solubility is 45 µg/mL (≈ 127 µM).

With `O=C(CS(=O)(=O)c1ccc(F)cc1)NCc1ccccc1`, the solubility (kinetic) is 16.2 µg/mL (≈ 52.7 µM).

Regarding `COc1ccc(CSC2=CS(=O)(=O)c3ccccc3N2)cc1`, the solubility (kinetic) stood at 9.8 µg/mL (≈ 29.4 µM).

On to `N#Cc1cccc(NC(=O)c2cncn2-c2ccccc2)c1`, for which the kinetic solubility amounted to 41.8 µg/mL (≈ 145 µM).

In turn, `O=C(CCl)Nc1c2c(nn1-c1ccccc1)CSC2` registered a kinetic solubility of over 44.1 µg/mL.

Take `COc1cccc(/C=C/C(=O)OCC(=O)NCCC2=CCCCC2)c1OC`: the solubility (kinetic) was 6.9 µg/mL (≈ 18.5 µM).

With `O=C(CN1C(=O)C(=O)N(Cc2ccco2)C1=O)Nc1ccc(F)c(F)c1F`, the solubility (kinetic) was found to be 52.4 µg/mL (≈ 137 µM).

`CSc1cccc(NC(=O)CNS(=O)(=O)c2ccccc2)c1`: the solubility (kinetic) was over 50.5 µg/mL.

In turn, `COc1cccc(NC(=O)C2CCCO2)c1` (stereo not given) yielded a kinetic solubility of 30.5 µg/mL (≈ 138 µM).

`O=c1oc(Nc2ccccc2Cl)nc2ccccc12`: the kinetic solubility stood at 7.9 µg/mL (≈ 29 µM).

`COc1ccc(NC(=O)Nc2cnccn2)cc1` gave a solubility (kinetic) of 8.1 µg/mL (≈ 33.2 µM).

In turn, `O=C1c2ccccc2NC(c2ccccc2)N1CCCN1CCOCC1` (stereo not given) showed a solubility (kinetic) of over 52.7 µg/mL.

Take `COc1ccc(CN2CCSCC2)c(C)c1C`: the solubility (kinetic) is 5.7 µg/mL (≈ 22.7 µM).

The compound `OCc1ccnc2oc3ccccc3c12` registered a kinetic solubility of 28.8 µg/mL (≈ 145 µM).

For `Oc1ccc(C(=S)N2CCCC2)cc1`, the solubility (kinetic) is over 31.1 µg/mL.

As for `C=CCN(CC(=O)Nc1cccnc1)S(=O)(=O)c1ccc(Cl)cc1`, the solubility (kinetic) is over 54.9 µg/mL.

Turning to `CC(=O)N/C(=N\c1nc(C)cc(C)n1)Nc1ccccc1Cl`, the kinetic solubility amounted to 0.5 µg/mL (≈ 1.57 µM).

With `O=C(Nc1cccnc1)c1ccc(CSc2ccccc2)cc1`, the solubility (kinetic) was under 0.3 µg/mL.

For `CN1CCN(NS(=O)(=O)c2ccc(Cl)cc2)CC1`, the kinetic solubility was over 43.5 µg/mL.

In turn, `O=C(c1ccccc1[N+](=O)[O-])N1CCCC(C(=O)N2CCCCCC2)C1` (stereo not given) showed a solubility (kinetic) of 53 µg/mL (≈ 147 µM).

`CCC(=O)Nc1nc2ccccc2n1Cc1ccccc1Cl` gave a kinetic solubility of 1.7 µg/mL (≈ 5.42 µM).

Regarding `O=S(=O)(Nc1ccc(-c2nc3cccnc3s2)cc1)c1ccccc1F`, the kinetic solubility was found to be 0.8 µg/mL (≈ 2.08 µM).

With `CC(NC(=O)c1cc2ccccc2oc1=O)c1ccccc1` (stereo not given), the kinetic solubility turned out to be 3.8 µg/mL (≈ 13 µM).

`CCC(NC(=S)NCc1ccc(F)cc1)c1ccc(C)cc1` (stereo not given) displayed a kinetic solubility of 0.8 µg/mL (≈ 2.53 µM).

On to `O=C(Oc1cccc(C(=S)N2CCCCC2)c1)c1ccccc1`, for which the kinetic solubility is 6 µg/mL (≈ 18.4 µM).

`CC1CCCCN1CC(O)COCc1ccc(Cl)cc1` (stereo not given) came in with a solubility (kinetic) of 29.1 µg/mL (≈ 97.7 µM).

Compound `O=C(NCc1ccccn1)Nc1cc(Cl)ccc1Cl` came in with a solubility (kinetic) of 11.9 µg/mL (≈ 40.2 µM).

As usually defined, the solubility (kinetic) is solubility judged after dilution from a stock solution rather than from solid.
